# Values of other authors as cited in patent US20070232537A1, “INTRANASAL PYY FORMULATIONS WITH IMPROVED TRANSMUCOSAL PHARMACOKINETICS” (Nastech Pharmaceutical Company Inc., priority 2005, published 2007).
# How the values were obtained:
# [1] = anesthetized rats; increased from 7.5
# [2] = aqueous solution at physiologic pH
compound,measurement,setting,value
2-alkyl-4-hydroxyquinolines [pyo compound],concentration producing ciliostasis / inhibiting ciliary motility,ciliary motility,50 µg/mL
CC(=O)N[C@@H](CS)C(=O)O [N-acetyl-L-cysteine],nasal bioavailability of human growth hormone,[1],12.2%
CC(C)CC(N)B(O)O (stereo not drawn) [boro-leucine],times more effective in enzyme inhibition than bestatin,aminopeptidases,more than 100 times
same,times more effective in enzyme inhibition than puromycin,aminopeptidases,more than 1000 times
CCN(CC)/[N+]([O-])=N/O.CCNCC [diethylamine/NO],NO release rate (time),[2],< 3 min
NCCN(CCN)/[N+]([O-])=N/O [diethylenetriamine/NO],NO release rate (time),[2],approximately 20 hours
